In publication PMC11122761, “Synthetic ShK-like Peptide from the Jellyfish Nemopilema nomurai Has Human Voltage-Gated Potassium-Channel-Blocking Activity” (Marine Drugs, 2024):
Entries after “also recorded” stand apart in the source; their conditions may differ. Where no end group is shown, it is not given here.

Columns and labels:
hKv1.3 = test: Whole-cell patch-clamp current recording, hKv1.3; assay type: cell-based, human; conditions: for hKv1.3 IV curve, p vs. 0 nM: IV curves −130 to 50 mV (Figure 3), two-way ANOVA; for hKv1.3 IV curve, p vs. 0 nM / reduction of hKv1.3 current amplitude at 50 mV, p vs. 0 nM: Dunnett's post hoc; for reduction of hKv1.3 current amplitude at 50 mV, p vs. 0 nM: one-way ANOVA; for current of hKv1.3 (current amplitude), effect of treatment / inhibition of the current amplitudes of hKv1.3 by NnK-1 analogs: 0.01, 1, 100, or 500 nM; for current of hKv1.3 (current amplitude), effect of treatment: HEK293 cells expressing hKv1.3, bath-applied for 2 min, whole-cell, holding potential –70 mV; for hKv1.3 IV curves, two-way ANOVA group effect p: group effect, 0, 0.01, 1, 100, or 500 nM, Figure 3 IV curves; for hKv1.3 current amplitude at 50 mV, one-way ANOVA p: overall, 0, 0.01, 1, 100, or 500 nM; for inhibition of the current amplitudes of hKv1.3 by NnK-1 analogs: Figure 6
Procedure: (§1) The amplification was performed in the Veriti™ 96-Well Fast Thermal Cycler (Applied Biosystems, Waltham, MA, USA) with a thermal cycling program consisting of predenaturation for 3 min at 95 °C, followed by 30 cycles of denaturation for 30 s at 95 °C, annealing for 30 s at 58 °C, and extension for 30 s at 72 °C, with a final extension for 3 min at 72 °C. A Human cDNA Clone Set (OriGene Technologies GmbH, Herford, Germany) was used as the template. A MCS (multi-cloning site) digested from the pAAV-MCS vector (Cell Biolabs, San Diego, CA, USA) was ligated into the pIRES2-EGFP vector (Clontech Laboratories, Mountain View, CA, USA) to form pAAV–CMV–IRES2–EGFP. The PCR products were ligated into the pAAV–CMV–IRES2–EGFP vector at the NheI and SalI sites to construct pAAV–CMV–hKv–IRES2–EGFP.
(§2) The HEK293 cells were transfected with pAAV–CMV–hKv–IRES2–EGFP (2 μg) using Effectene Transfection Reagent (Qiagen, Hilden, Germany) for 12–18 h. The transfectants (1 × 10^5/mL) were seeded onto 12 mm coverslips coated with 0.01 mg/mL poly-D-lysine for 2–3 h.
The HEK293 cells expressing AAV–CMV–hKv–IRES2–EGFP were reseeded onto coverslips. The HEK293 transfectants were monitored for their green fluorescence and used as patch cells. Patch pipettes were filled with an internal solution (140 mM potassium gluconate, 10 mM HEPES, 0.2 mM ATP, and 0.06 mM GTP). An external solution [130 mM NaCl, 10 mM HEPES, 3 mM KCl, 1.5 mM D-glucose, 10 mM sucrose, […], 1.5 mM MgCl2·6H2O, osmolarity 320 mmol/kg (pH 7.2)] was used as the basic buffer. Psora4, ShK, or NnK-1 (0, 0.01, 1, 100, or 500 nM) was bath-applied for 2 min to block the currents recorded from the HEK293 cells expressing AAV–CMV–hKv–IRES2–EGFP with voltages ranging from −130 to 50 mV in the increments of 20 mV and 0.6 s. Whole-cell patch recordings from […] under voltage-clamp conditions (holding potential of –70 mV) were made with the Multiclamp 700 B microelectrode amplifier (Automate Scientific Inc., Berkeley, CA, USA) digitized with a Digidata 1322 A data acquisition system (Molecular Devices Limited, San Jose, CA, USA). In this study, all electrophysiological data from the cultured cells were obtained at a temperature of 23–25 °C and maintained with the CL-100 Temperature Controller (Warner Instruments LLC, Hamden, CT, USA).

hKv11.1 = test: Whole-cell patch-clamp current recording, hKv11.1; assay type: cell-based, human; conditions: 100 nM NnK-1; Figure 4F; HEK293, bath-applied 2 min, 23–25 °C
Procedure: as §1
(§3) The HEK293 cells were transfected with pAAV–CMV–hKv–IRES2–EGFP (2 μg) using Effectene Transfection Reagent (Qiagen, Hilden, Germany) for 12–18 h. […]
(§4) The HEK293 cells expressing AAV–CMV–hKv–IRES2–EGFP were reseeded onto coverslips. The HEK293 transfectants were monitored for their green fluorescence and used as patch cells. […] Psora4, ShK, or NnK-1 (0, 0.01, 1, 100, or 500 nM) was bath-applied for 2 min to block the currents recorded from the HEK293 cells expressing AAV–CMV–hKv–IRES2–EGFP with voltages ranging from −130 to 50 mV in the increments of 20 mV and 0.6 s. […]

hKv1.4 = test: Whole-cell patch-clamp current recording, hKv1.4; assay type: cell-based, human
Procedure: as §1, §2
(§5) The HEK293 cells expressing AAV–CMV–hKv–IRES2–EGFP were reseeded onto coverslips. The HEK293 transfectants were monitored for their green fluorescence and used as patch cells. Patch pipettes were filled with an internal solution (140 mM potassium gluconate, 10 mM HEPES, 0.2 mM ATP, and 0.06 mM GTP). An external solution [130 mM NaCl, 10 mM HEPES, 3 mM KCl, 1.5 mM D-glucose, 10 mM sucrose, […], 1.5 mM MgCl2·6H2O, osmolarity 320 mmol/kg (pH 7.2)] was used as the basic buffer. Psora4, ShK, or NnK-1 (0, 0.01, 1, 100, or 500 nM) was bath-applied for 2 min to block the currents recorded from the HEK293 cells expressing AAV–CMV–hKv–IRES2–EGFP with voltages ranging from −130 to 50 mV in the increments of 20 mV and 0.6 s. […]

[1] = tested on: untransfected HEK293 cells; test: Cell viability assay (CCK-8), untransfected HEK293 cells; assay type: cell-based; conditions: 1 h treatment, 0.01, 1, 100, and 500 nM; CCK-8, absorbance 450 nm
Procedure: (§6) The cell viability of the HEK293 cells was assessed with a Cell Counting Kit-8 (CCK-8, DJDB4000X, Dojindo laboratory, Kumanoto, Japan). Both the HEK293 cells and HEK293 cells expressing AAV–CMV–hKv–IRES2–EGFP were seeded onto a 96-well plate (1 × 10^4 cells/well). After 24 h of incubation, ShK, NnK-1, NnK-1 mu, and NnK-1 w/o d (0, 0.01, 1, 100, or 500 nM) were used to treat the cells in each well for 1 h. After that, a dye solution was used to treat the cells for 2 h, and the absorbance was measured at 450 nm using a microplate reader (GloMax explorer multimode, Promega, Madison, WI, USA).

hKv1.1 = test: Whole-cell patch-clamp current recording, hKv1.1; assay type: cell-based, human; conditions: HEK293, bath-applied 2 min
Procedure: as §1, §3, §4

hKv3.1 = test: Whole-cell patch-clamp current recording, hKv3.1; assay type: cell-based, human; conditions: 100 nM NnK-1; Figure 4E; HEK293, bath-applied 2 min, 23–25 °C
Procedure: as §1, §3, §4

[2] = tested on: hKv1.3-transfected HEK293 cells; test: Cell viability assay (CCK-8), hKv1.3-transfected HEK293 cells; assay type: cell-based; conditions: 1 h treatment, 0.01, 1, 100, and 500 nM; CCK-8, absorbance 450 nm
Procedure: as §2, §6

[3] = Maintenance of disulfide bonds of synthetic NnK-1 in solution; assay type: physicochemical; conditions: dissolved in a solution; inferred from comparison with NnK-1 w/o d on hKv1.3
Description: Another peptide, NnK-1 w/o d, which had the same amino acid residues but without three pairs of disulfide bonds, was also synthesized to test whether the disulfide bonds were still intact in the synthetic NnK-1 after being dissolved in a solution.

hKv1.5 = test: Whole-cell patch-clamp current recording, hKv1.5; assay type: cell-based, human
Procedure: as §1, §2, §5

[4] = 0.01 nM, HEK293, bath-applied 2 min, pH 7.2, 23–25 °C
[5] = 1 nM, HEK293, bath-applied 2 min, pH 7.2, 23–25 °C
[6] = 1 nM, bar graph at 50 mV (Figure 3), HEK293, bath-applied 2 min, pH 7.2, 23–25 °C
[7] = 100 nM, HEK293, bath-applied 2 min, pH 7.2, 23–25 °C
[8] = 100 nM, bar graph at 50 mV (Figure 3), HEK293, bath-applied 2 min, pH 7.2, 23–25 °C
[9] = 500 nM, HEK293, bath-applied 2 min, pH 7.2, 23–25 °C
[10] = 500 nM, bar graph at 50 mV (Figure 3), HEK293, bath-applied 2 min, pH 7.2, 23–25 °C
[11] = 100 nM, HEK293, bath-applied 2 min, 23–25 °C (Figure 4)
[12] = electrophysiological assay, summary statement
[13] = HEK293, bath-applied 2 min, 23–25 °C

Compound | hKv1.3 IV curve, p vs. 0 nM (hKv1.3; [4]) | hKv1.3 IV curve, p vs. 0 nM (hKv1.3; [5]) | reduction of hKv1.3 current amplitude at 50 mV, p vs. 0 nM (hKv1.3; [6]) | hKv1.3 IV curve, p vs. 0 nM (hKv1.3; [7]) | reduction of hKv1.3 current amplitude at 50 mV, p vs. 0 nM (hKv1.3; [8]) | hKv1.3 IV curve, p vs. 0 nM (hKv1.3; [9]) | reduction of hKv1.3 current amplitude at 50 mV, p vs. 0 nM (hKv1.3; [10]) | current of hKv1.3 (current amplitude), effect of treatment (hKv1.3; pH 7.2, 23–25 °C) | hKv1.3 IV curves, two-way ANOVA group effect p (hKv1.3) | hKv1.3 current amplitude at 50 mV, one-way ANOVA p (hKv1.3; Figure 3 bar graphs) | hKv1.3 current amplitude at 50 mV, one-way ANOVA p (hKv1.3; Figure 6 bar graphs) | inhibition of the current amplitudes of hKv1.3 by NnK-1 analogs (hKv1.3; [13]) | also measured
O=c1ccc2c(OCCCCc3ccccc3)c3ccoc3cc2o1 [Psora4, reference compound] | < 0.05 | < 0.0001 | < 0.01 | < 0.0001 | < 0.001 | < 0.0001 | < 0.0001 | significantly reduced | < 0.0001 | < 0.0001 | – | – | –
CKDHHTYGVYCKDWKSSGECKKNPKGMRHFCRKTCGFC (disulfide (positions not given here)) [NnK-1, fifth ShK-like peptide of the Nemopilema nomurai NnK-1 precursor, chemically synthesized] | < 0.01 | < 0.0001 | < 0.0001 | < 0.0001 | < 0.0001 | < 0.0001 | < 0.0001 | significantly reduced | < 0.0001 | < 0.0001 | < 0.05 | – | hKv11.1 IV curve, two-way ANOVA group effect p (hKv11.1): 0.39; hKv1.4 IV curve, two-way ANOVA group effect p (hKv1.4; 100 nM NnK-1, Figure 4C, HEK293, bath-applied 2 min, 23–25 °C): < 0.01; inhibition of the current amplitude of hKv1.4 (hKv1.4; [11]): significantly inhibited; channel block, hKv1.4 (hKv1.4; [12]): effective blocker; reduction of hKv1.3 current amplitude at 50 mV, p vs. 0 nM (hKv1.3; 0.01 nM, bar graph at 50 mV (Figure 3), HEK293, bath-applied 2 min, pH 7.2, 23–25 °C): < 0.05; hKv1.3 IV curve, two-way ANOVA group effect p (hKv1.3; 100 nM NnK-1, Figure 4B, HEK293, bath-applied 2 min, 23–25 °C): < 0.05; reduction of hKv1.3 current amplitude at 50 mV, p vs. 0 nM (hKv1.3; 100 nM, Figure 6B, HEK293, bath-applied 2 min): < 0.05; inhibition of the current amplitude of hKv1.3 (hKv1.3; [11]): significantly inhibited; reduction of hKv1.3 current amplitude at 50 mV, p vs. 0 nM (hKv1.3; 500 nM, Figure 6B, HEK293, bath-applied 2 min): < 0.05; channel block, hKv1.3 (hKv1.3; [12]): effective blocker; also recorded: Kv1.3-blocking activity; cell viability, untransfected HEK293 [1]: no difference; hKv1.1 IV curve, two-way ANOVA group effect p (hKv1.1; 100 nM NnK-1, Figure 4A, 23–25 °C): 0.52; inhibition of the current amplitude of hKv1.1 (hKv1.1; 100 nM, 23–25 °C (Figure 4)): not that of hKv1.1, hKv3.1, and hKv.11.1; hKv3.1 IV curve, two-way ANOVA group effect p (hKv3.1): 0.46; cell viability, hKv1.3-transfected HEK293 [2]: no difference; disulfide bonds in solution [3]: maintained even when dissolved in a solution; hKv1.5 IV curve, two-way ANOVA group effect p (hKv1.5; 100 nM NnK-1, Figure 4D, HEK293, bath-applied 2 min, 23–25 °C): < 0.001; inhibition of the current amplitude of hKv1.5 (hKv1.5; [11]): significantly inhibited; channel block, hKv1.5 (hKv1.5; [12]): effective blocker
CKDHHTYGVYCKDWKSSGECKKNPKGMRHFCRKTCGFC [NnK-1 w/o d, same amino acid residues as NnK-1 but without three pairs of disulfide bonds] | – | – | – | – | – | – | – | – | – | – | 0.28 | neither NnK-1 mu nor NnK-1 w/o d inhibited the current amplitudes of hKv1.3 | –
CKEHHTYGVYCKDWKSSGECKKNPRGMRHFCRKMCGFC (disulfide (positions not given here)) [NnK-1 mu, NnK-1 with three amino acids substituted with 3Glu, 25Arg, and 34Met] | – | – | – | – | – | – | – | – | – | – | 0.89 | neither NnK-1 mu nor NnK-1 w/o d inhibited the current amplitudes of hKv1.3 | –
